“And” between values parts separate entries of the source, which are not always exact repeats. Equal values may be shown once.
What was measured:
[1] = target: 5-hydroxytryptamine receptor 5A (Mus musculus, UniProt P30966)
[2] = target: 5-hydroxytryptamine receptor 5B (Rattus norvegicus, UniProt P35365)
[3] = target: 5-hydroxytryptamine receptor 1B (Rattus norvegicus, UniProt P28564)
[4] = target: 5-hydroxytryptamine receptor 5A (Rattus norvegicus, UniProt P35364)
[5] = target: 5-hydroxytryptamine receptor 7 (Mus musculus, UniProt P32304)
Chain of 5-hydroxytryptamine receptor 7 (P32304 whole entry): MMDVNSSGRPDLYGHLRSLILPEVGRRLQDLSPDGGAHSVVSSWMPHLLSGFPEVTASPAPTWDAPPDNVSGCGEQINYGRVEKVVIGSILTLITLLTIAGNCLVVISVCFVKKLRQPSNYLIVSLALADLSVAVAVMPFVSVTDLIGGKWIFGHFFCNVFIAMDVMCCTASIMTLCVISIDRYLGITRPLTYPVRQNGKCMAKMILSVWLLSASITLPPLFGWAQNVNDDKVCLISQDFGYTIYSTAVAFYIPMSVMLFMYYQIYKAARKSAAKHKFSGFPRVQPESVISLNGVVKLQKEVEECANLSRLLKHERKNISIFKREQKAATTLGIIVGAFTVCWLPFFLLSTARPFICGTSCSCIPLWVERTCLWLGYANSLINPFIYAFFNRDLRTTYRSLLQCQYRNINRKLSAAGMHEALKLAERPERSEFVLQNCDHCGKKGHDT

[6] = target: T1, 5-hydroxytryptamine receptor 1F (Rattus norvegicus, UniProt P30940)
T1 sequence (P30940 whole entry): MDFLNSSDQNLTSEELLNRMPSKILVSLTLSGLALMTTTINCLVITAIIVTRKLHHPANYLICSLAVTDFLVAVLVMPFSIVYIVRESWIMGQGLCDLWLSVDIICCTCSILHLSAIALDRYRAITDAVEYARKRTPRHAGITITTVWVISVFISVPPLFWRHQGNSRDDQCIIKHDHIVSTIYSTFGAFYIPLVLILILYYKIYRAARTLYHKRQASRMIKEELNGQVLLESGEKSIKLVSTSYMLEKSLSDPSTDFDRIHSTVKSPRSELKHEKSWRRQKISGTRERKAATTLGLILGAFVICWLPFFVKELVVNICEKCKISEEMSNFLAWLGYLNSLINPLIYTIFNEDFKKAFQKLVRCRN

[7] = target: T2, 5-hydroxytryptamine receptor 1F (Mus musculus, UniProt Q02284)
T2 sequence (Q02284 whole entry): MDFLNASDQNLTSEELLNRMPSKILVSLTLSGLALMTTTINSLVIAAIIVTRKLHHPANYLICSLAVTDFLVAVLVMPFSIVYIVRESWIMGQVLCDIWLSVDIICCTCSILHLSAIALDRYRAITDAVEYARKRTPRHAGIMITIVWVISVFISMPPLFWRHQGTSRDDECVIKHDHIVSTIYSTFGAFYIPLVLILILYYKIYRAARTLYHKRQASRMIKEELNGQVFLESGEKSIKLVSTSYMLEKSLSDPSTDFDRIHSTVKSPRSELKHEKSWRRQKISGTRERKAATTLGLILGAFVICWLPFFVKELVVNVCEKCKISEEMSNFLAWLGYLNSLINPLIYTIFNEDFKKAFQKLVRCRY

[8] = target: T3, 5-hydroxytryptamine receptor 3A (Mus musculus, UniProt P23979)
T3 sequence (P23979 whole entry): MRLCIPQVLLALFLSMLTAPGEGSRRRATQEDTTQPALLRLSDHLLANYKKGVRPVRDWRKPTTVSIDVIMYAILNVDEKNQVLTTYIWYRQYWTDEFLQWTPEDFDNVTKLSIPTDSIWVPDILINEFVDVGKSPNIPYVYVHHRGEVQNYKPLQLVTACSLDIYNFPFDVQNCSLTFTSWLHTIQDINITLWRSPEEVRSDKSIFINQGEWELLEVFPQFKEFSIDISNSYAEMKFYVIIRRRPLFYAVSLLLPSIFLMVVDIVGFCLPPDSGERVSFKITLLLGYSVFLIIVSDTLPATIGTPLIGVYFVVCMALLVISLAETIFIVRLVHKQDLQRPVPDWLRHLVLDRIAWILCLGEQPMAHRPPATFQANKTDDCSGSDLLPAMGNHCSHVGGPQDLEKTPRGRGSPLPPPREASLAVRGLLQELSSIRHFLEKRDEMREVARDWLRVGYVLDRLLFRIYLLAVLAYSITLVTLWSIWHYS

[9] = target: 5-hydroxytryptamine receptor 2B (Mus musculus, UniProt Q02152)
Chain of 5-hydroxytryptamine receptor 2B (Mus musculus, UniProt Q02152) (Q02152 whole entry): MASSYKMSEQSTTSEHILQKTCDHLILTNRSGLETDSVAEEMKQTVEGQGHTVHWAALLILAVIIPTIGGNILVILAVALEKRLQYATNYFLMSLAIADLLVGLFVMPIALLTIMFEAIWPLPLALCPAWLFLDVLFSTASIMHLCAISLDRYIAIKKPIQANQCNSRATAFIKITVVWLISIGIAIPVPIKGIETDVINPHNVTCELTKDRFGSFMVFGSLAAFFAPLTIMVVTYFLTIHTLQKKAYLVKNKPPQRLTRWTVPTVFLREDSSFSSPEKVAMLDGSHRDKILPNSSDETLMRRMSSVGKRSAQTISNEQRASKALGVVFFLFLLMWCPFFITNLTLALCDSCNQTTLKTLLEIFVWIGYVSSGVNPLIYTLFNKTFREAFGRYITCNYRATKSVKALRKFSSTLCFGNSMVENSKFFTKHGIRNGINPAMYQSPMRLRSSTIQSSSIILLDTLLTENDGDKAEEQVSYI

[10] = target: 5-hydroxytryptamine receptor 1E (Homo sapiens, UniProt P28566)
Chain of 5-hydroxytryptamine receptor 1E (P28566 whole entry): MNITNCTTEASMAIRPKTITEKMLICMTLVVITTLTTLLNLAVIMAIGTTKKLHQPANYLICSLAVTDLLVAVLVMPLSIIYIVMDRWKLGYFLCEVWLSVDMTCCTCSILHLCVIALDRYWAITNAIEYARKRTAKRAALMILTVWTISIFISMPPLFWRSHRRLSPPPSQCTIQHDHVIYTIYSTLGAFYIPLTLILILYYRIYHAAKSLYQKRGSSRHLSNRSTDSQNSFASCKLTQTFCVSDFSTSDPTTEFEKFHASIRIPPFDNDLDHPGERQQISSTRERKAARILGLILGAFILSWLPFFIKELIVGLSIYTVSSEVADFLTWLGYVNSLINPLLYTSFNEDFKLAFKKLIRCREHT

[11] = target: 5-hydroxytryptamine receptor 1B (Mus musculus, UniProt P28334)
Chain of 5-hydroxytryptamine receptor 1B (Mus musculus, UniProt P28334) (P28334 whole entry): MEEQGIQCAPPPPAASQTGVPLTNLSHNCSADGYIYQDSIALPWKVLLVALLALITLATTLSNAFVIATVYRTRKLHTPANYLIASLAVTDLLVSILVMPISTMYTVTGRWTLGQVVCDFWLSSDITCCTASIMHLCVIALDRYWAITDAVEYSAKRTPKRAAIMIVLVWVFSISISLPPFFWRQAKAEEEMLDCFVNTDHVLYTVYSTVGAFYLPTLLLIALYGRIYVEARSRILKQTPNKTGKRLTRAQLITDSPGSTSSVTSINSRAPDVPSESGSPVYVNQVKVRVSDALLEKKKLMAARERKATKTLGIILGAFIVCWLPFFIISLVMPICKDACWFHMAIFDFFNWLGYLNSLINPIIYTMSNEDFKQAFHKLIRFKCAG

[12] = target: 5-hydroxytryptamine receptor 4 (Cavia porcellus, UniProt O70528)
Chain of 5-hydroxytryptamine receptor 4 (O70528 whole entry): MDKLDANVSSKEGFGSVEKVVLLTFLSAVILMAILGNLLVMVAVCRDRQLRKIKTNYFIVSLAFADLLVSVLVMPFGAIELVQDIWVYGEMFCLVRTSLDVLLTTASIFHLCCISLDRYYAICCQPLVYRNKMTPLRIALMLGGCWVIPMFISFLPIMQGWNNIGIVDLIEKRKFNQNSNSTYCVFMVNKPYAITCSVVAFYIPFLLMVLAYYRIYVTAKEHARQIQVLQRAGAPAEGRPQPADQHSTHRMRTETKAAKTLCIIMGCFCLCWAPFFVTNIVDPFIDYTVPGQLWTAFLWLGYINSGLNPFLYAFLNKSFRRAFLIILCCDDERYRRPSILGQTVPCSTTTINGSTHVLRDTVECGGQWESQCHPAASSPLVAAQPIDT

[13] = target: 5-hydroxytryptamine receptor 2B (Rattus norvegicus, UniProt P30994)
Chain of 5-hydroxytryptamine receptor 2B (Rattus norvegicus, UniProt P30994) (P30994 whole entry): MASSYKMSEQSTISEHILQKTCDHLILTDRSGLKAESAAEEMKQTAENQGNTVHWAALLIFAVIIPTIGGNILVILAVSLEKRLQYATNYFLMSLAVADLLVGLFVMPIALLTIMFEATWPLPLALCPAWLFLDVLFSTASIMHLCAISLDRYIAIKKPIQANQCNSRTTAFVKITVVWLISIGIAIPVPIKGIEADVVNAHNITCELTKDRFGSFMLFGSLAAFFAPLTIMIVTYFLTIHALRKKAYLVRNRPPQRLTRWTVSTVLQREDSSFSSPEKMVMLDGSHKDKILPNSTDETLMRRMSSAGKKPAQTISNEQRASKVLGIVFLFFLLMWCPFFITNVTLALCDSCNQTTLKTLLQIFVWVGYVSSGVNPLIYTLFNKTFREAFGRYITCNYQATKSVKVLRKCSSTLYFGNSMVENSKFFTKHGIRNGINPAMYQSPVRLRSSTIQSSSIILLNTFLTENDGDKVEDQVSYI

[14] = target: 5-hydroxytryptamine receptor 1D (Rattus norvegicus, UniProt P28565)
Chain of 5-hydroxytryptamine receptor 1D (Rattus norvegicus, UniProt P28565) (P28565 whole entry): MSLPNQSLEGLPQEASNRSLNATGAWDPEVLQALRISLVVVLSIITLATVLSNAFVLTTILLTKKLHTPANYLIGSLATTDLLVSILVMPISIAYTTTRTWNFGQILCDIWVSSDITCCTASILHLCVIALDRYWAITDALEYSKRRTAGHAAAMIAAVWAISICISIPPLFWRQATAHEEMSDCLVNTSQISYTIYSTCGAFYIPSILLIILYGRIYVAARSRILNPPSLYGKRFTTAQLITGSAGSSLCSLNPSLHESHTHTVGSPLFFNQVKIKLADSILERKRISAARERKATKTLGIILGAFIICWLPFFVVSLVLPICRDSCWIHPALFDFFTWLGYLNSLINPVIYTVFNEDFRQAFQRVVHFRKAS

[15] = target: 5-hydroxytryptamine receptor 1D (Canis lupus familiaris, UniProt P11614)
Chain of 5-hydroxytryptamine receptor 1D (Canis lupus familiaris, UniProt P11614) (P11614 whole entry): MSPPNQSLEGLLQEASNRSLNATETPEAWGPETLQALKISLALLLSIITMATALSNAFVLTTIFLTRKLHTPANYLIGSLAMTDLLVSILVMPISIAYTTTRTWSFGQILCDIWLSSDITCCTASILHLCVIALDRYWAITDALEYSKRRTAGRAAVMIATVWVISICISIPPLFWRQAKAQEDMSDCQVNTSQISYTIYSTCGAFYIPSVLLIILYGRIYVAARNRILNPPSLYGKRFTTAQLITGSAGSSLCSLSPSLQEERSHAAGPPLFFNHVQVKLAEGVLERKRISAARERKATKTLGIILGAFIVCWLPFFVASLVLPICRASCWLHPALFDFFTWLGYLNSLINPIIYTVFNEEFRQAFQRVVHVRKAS

[16] = target: T4, 5-hydroxytryptamine receptor 2C (Rattus norvegicus, UniProt P08909)
T4 sequence (P08909 whole entry): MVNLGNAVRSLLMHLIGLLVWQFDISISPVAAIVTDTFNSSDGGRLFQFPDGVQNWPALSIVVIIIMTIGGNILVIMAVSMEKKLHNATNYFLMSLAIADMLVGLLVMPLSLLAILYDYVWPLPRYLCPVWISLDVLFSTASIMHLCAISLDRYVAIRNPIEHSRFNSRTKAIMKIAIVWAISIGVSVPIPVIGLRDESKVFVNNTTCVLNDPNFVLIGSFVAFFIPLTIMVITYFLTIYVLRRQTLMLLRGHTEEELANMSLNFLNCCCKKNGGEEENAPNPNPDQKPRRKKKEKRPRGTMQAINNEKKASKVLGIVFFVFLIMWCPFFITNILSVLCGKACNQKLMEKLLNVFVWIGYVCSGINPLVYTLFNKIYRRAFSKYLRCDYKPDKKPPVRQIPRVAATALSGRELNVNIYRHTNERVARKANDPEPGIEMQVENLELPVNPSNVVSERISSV

[17] = target: T5, 5-hydroxytryptamine receptor 1F (Homo sapiens, UniProt P30939)
T5 sequence (P30939 whole entry): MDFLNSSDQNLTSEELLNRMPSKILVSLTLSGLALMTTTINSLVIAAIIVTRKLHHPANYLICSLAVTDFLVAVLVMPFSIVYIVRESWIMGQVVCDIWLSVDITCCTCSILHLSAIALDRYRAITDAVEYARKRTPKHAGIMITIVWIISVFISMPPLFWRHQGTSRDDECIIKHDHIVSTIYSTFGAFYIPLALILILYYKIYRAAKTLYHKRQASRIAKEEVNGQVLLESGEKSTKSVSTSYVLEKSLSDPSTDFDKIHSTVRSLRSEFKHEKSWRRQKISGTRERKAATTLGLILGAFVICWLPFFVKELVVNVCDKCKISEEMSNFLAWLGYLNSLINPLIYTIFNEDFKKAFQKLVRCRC

[18] = target: 5-hydroxytryptamine receptor 2A (Rattus norvegicus, UniProt P14842)

Chain of 5-hydroxytryptamine receptor 5A (Mus musculus, UniProt P30966) (P30966 whole entry): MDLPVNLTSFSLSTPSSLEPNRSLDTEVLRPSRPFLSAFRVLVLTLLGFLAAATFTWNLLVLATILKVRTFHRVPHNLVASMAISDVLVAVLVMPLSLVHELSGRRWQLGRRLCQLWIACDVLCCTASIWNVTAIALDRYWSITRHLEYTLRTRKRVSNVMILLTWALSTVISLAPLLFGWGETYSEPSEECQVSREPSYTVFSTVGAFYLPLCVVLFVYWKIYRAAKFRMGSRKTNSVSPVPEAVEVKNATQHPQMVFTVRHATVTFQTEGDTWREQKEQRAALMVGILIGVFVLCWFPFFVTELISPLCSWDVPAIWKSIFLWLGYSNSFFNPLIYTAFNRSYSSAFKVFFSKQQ
Chain of 5-hydroxytryptamine receptor 1B (Rattus norvegicus, UniProt P28564) (P28564 whole entry): as the sequence (P28334 whole entry) above, with A15T, T23A, G33D, E152D, M192V, A270V, D272E, A385T counted along it
Chain of 5-hydroxytryptamine receptor 5A (Rattus norvegicus, UniProt P35364) (P35364 whole entry): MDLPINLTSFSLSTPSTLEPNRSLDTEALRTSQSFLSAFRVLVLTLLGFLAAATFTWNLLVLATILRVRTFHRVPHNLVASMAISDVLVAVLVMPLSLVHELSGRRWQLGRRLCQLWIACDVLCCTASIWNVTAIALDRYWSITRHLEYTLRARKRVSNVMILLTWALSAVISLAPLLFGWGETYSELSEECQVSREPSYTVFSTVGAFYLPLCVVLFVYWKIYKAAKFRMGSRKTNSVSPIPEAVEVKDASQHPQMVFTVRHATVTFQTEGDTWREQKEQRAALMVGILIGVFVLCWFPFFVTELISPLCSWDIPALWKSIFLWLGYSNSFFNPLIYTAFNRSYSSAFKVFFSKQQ
Chain of 5-hydroxytryptamine receptor 5B (P35365 whole entry): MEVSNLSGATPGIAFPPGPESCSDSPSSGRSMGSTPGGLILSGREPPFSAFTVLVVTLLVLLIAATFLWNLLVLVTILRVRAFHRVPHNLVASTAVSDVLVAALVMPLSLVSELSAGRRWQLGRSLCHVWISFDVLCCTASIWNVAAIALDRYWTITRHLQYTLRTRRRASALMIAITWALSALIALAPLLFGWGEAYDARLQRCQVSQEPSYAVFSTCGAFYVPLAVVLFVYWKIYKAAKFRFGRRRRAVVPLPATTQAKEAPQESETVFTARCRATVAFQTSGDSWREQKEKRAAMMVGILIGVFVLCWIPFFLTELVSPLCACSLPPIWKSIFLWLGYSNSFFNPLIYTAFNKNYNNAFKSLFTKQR

Row | Structure (SMILES) | Ki [1] | Ki [4] [nM] | Ki [5] [nM] | Ki [6] [nM] | Ki [7] [nM] | Ki [9] [nM] | Ki [10] | Ki [12] | Ki [16] | other results
1 | CC[C@@H](CO)NC(=O)[C@@H]1C=C2c3cccc4c3c(cn4C)C[C@H]2N(C)C1 | 79.4 nM | 195 | 12.6 | 13.5 | 6.3 | 12.6 | 324 nM and 219 nM |  |  | Ki [2]: 1000 nM; Ki [3]: 1820 nM and 437 nM; Ki [8]: > 10000 nM
2 | NCCc1c[nH]c2ccc(C(N)=O)cc12 [[3H]-5-carboxamidotryptamine] | 15.8 nM and 12.6 nM | 12.6 | 1 | 2450 | 3160 |  | 7080 nM and 3310 nM | > 10000 nM |  | Ki [11]: 10 nM; Ki [13]: 151 nM; Ki [14]: 0.37 nM
3 | NCCc1c[nH]c2ccc(O)cc12 [[3H]-5-HT] |  | 240 | 5.01 | 67.6 | 126 |  |  |  |  | Ki [11]: 39.8 nM; Ki [15]: 15.8 nM
4 | Clc1cncc(N2CCNCC2)n1 [L-630,571] |  |  |  |  |  |  |  |  | 339 nM | 
5 | CN1C[C@H](C(=O)N[C@]2(C)O[C@@]3(O)[C@@H]4CCCN4C(=O)[C@H](Cc4ccccc4)N3C2=O)C=C2c3cccc4[nH]cc(c34)C[C@H]21 [12'-hydroxy-2'-methyl-5'alpha-(phenylmethyl)ergotaman-3',6',18-trione] | 6.3 nM |  | 50.1 | 52.5 | 50.1 |  | 575 nM and 537 nM |  |  | Ki [2]: 15.8 nM; Ki [3]: 0.03 nM; Ki [14]: 0.07 nM; Ki [15]: 1.94 nM
6 | c1ccc2nc(N3CCNCC3)ccc2c1 [2-Piperazin-1-yl-quinoline (Quipazine)] |  |  |  |  |  | 6610 |  |  | 257 nM | 
7 | CC(C)n1c(=O)n(C(=O)NC2CC3CCC(C2)N3C)c2ccccc21 (stereo not given) [BIMU 8] |  |  |  |  |  |  |  | 25.1 nM and 12.6 nM |  | 
8 | COc1cc(N)c(Cl)cc1C(=O)N[C@H]1CN2CCC1CC2 [4-Amino-N-(R)-1-aza-bicyclo[2.2.2]oct-3-yl-5-chloro-2-methoxy-benzamide] |  |  |  |  |  |  |  | 251 nM and 200 nM |  | 
9 | O=C(c1ccc(F)cc1)C1CCN(CCn2c(=O)[nH]c3ccccc3c2=O)CC1 [3-(2-{4-[(4-fluorophenyl)carbonyl]piperidin-1-yl}ethyl)-1,2,3,4-tetrahydroquinazoline-2,4-dione] |  |  |  |  |  | 204 |  |  | 47.9 nM and 20.9 nM | Ki [17]: 1.25 nM; Ki [13]: 3550 nM
10 | CN(C)CCCSc1ccccc1NC(=O)/C=C/c1ccccc1 [CINANSERIN] |  |  |  |  |  |  |  |  |  | Ki [18]: 6.02 nM
